Assay results taken from the RepoRT retention time repository.
Where a name gives a salt, the structure may show the parent alone.

Assay: RP, Restek Raptor Biphenyl, 100 × 2.1 mm, 2.7 µm, 50 °C, 0.4 mL/min, estimated dead time 0.55 min; A: water + 0.1% formic acid, pH 3; B: methanol + 0.1% formic acid, pH 3; gradient (min/%B) 0/5 1.12/5 6.41/99.5 10.01/99.5
Conditions: stereoisomer not certain

Row | SMILES | LC retention time [min]
1 | NCCc1ccc(O)c(O)c1 [DOPAMINE] | 0.724
2 | Cc1cn(C2CC(O)C(COP(=O)(O)OP(=O)(O)OC3OC(CO)C(O)C(O)C3O)O2)c(=O)[nH]c1=O [DTDP-D-GLUCOSE] | 0.702
3 | CC(CCC(=O)O)C1CCC2C3C(=O)CC4CC(=O)CCC4(C)C3CC(=O)C12C (centres undefined) [Dehydrocholic acid] | 6.13
4 | CC(CCC(=O)O)C1CCC2C3CCC4CC(O)CCC4(C)C3CC(O)C12C (centres undefined) [Deoxycholic acid] | 6.37
5 | O=C(Nc1ccc(F)cc1F)c1cccnc1Oc1cccc(C(F)(F)F)c1 [Diflufenican] | 6.33
6 | CC(C)(C)C(O)C(=Cc1ccc(Cl)cc1Cl)n1cncn1 (centres undefined) [Diniconazole] | 6.05
7 | CNC(=N[N+](=O)[O-])NCC1CCOC1 (centres undefined) [Dinotefuran] | 3.16
8 | CN(C)C(=O)Nc1ccc(Cl)c(Cl)c1 [Diuron] | 5.22
9 | CCCCCCCCC=CCCCCCCCCCCCC(=O)O [Erucic acid] | 6.84
10 | Cc1cc2nc3c(=O)[nH]c(=O)nc-3n(CC(O)C(O)C(O)COP(=O)(O)OP(=O)(O)OCC3OC(n4cnc5c(N)ncnc54)C(O)C3O)c2cc1C (centres undefined) [FAD] | 4.07
11 | Nc1nc2ncc(CNc3ccc(C(=O)NC(CCC(=O)O)C(=O)O)cc3)nc2c(=O)[nH]1 (centres undefined) [FOLATE] | 3.67
12 | CC1(c2ccc(Oc3ccccc3)cc2)OC(=O)N(Nc2ccccc2)C1=O (centres undefined) [Famoxadone] | 6.68
13 | OC(c1ccc(Cl)cc1)(c1cncnc1)c1ccccc1Cl (centres undefined) [Fenarimol] | 6.02
14 | CC1(C(=O)Nc2ccc(O)c(Cl)c2Cl)CCCCC1 [Fenhexamid] | 5.83
15 | N#Cc1nn(-c2c(Cl)cc(C(F)(F)F)cc2Cl)c(N)c1S(=O)C(F)(F)F (centres undefined) [Fipronil] | 5.6
16 | N#CCNC(=O)c1cnccc1C(F)(F)F [Flonicamid] | 3.4
17 | O=[N+]([O-])c1cc(C(F)(F)F)c(Cl)c([N+](=O)[O-])c1Nc1ncc(C(F)(F)F)cc1Cl [Fluazinam] | 6.33
18 | Cc1cc(C(F)(C(F)(F)F)C(F)(F)F)ccc1NC(=O)c1cccc(I)c1C(=O)NC(C)(C)CS(C)(=O)=O [Flubendiamide] | 5.97
19 | N#Cc1c[nH]cc1-c1cccc2c1OC(F)(F)O2 [Fludioxonil] | 5.51
20 | Cc1ccn2nc(S(=O)(=O)Nc3c(F)cccc3F)nc2n1 [Flumetsulam] | 4.92
21 | CN(C)C(=O)Nc1cccc(C(F)(F)F)c1 [Fluometuron] | 4.92
22 | COc1cc(OC)nc(NC(=O)NS(=O)(=O)c2cc(NC=O)ccc2C(=O)N(C)C)n1 [Foramsulfron] | 5.76

Row | SMILES | LC retention time [min]
23 | O=C(Nc1ccccc1)Nc1ccnc(Cl)c1 [Forchlorfenuron] | 5.17
24 | Nc1nc2c(ncn2C2OC(CO)C(O)C2O)c(=O)[nH]1 (centres undefined) [GUANOSINE] | 1.15
25 | O=C(O)CCCC(=O)O [Glutaric acid] | 1.37
26 | CC(CCC(=O)NCC(=O)O)C1CCC2C3CCC4CC(O)CCC4(C)C3CC(O)C12C (centres undefined) [Glycodeoxycholic acid] | 6.16
27 | CC(CCC(=O)NCC(=O)O)C1CCC2C3CC(O)C4CC(O)CCC4(C)C3CCC12C (centres undefined) [Glycohyodeoxycholic acid] | 5.79
28 | CC(CCC(=O)NCC(=O)O)C1CCC2C3CCC4CC(O)CCC4(C)C3CCC12C (centres undefined) [Glycolithocholic acid] | 6.37
29 | O=C(O)CNC(=O)c1ccccc1 [HIPPURATE] | 3.44
30 | O=C(O)Cc1cc(O)ccc1O [HOMOGENTISATE] | 1.47
31 | COc1cc(CC(=O)O)ccc1O [HOMOVANILLATE] | 2.46
32 | CC(C)(C)N(NC(=O)c1ccc(Cl)cc1)C(=O)c1ccccc1 [Halofenozide] | 5.6
33 | COC(=O)c1c(Cl)nn(C)c1S(=O)(=O)NC(=O)Nc1nc(OC)cc(OC)n1 [Halosulfuron-methyl] | 6.42
34 | CCCCCCCCCCCCCCCCCCCCC(=O)O [Heneicosanoic acid] | 6.82
35 | CCCCCCCCCCCCCCCCCCCCCCCCCCC(=O)O [Heptacosanoic Acid] | 7.05
36 | CCCCCCCCCCCCCCCCC(=O)O [Heptadecanoic acid] | 6.6
37 | CCCCC(O)(Cn1cncn1)c1ccc(Cl)cc1Cl (centres undefined) [Hexaconazole] | 5.98
38 | NC(=O)Cc1c[nH]c2ccccc12 [INDOLE-3-ACETAMIDE] | 3.75
39 | OCCc1c[nH]c2ccccc12 [INDOLE-3-ETHANOL] | 4.06
40 | O=S(=O)(O)Oc1c[nH]c2ccccc12 [INDOXYL SULFATE] | 2.52
41 | O=C(O)CCCc1c[nH]c2ccccc12 [Indole-3-butyric acid] | 4.97
42 | O=Cc1c[nH]c2ccccc12 [Indole-3-carboxaldehyde] | 4.24
43 | O=C(O)c1c[nH]c2ccccc12 [Indole-3-carboxylic acid] | 4.08
44 | O=C(O)CCc1c[nH]c2ccccc12 [Indole-3-propionic acid] | 4.66

Row | SMILES | LC retention time [min]
45 | CC(C)C1CCC(Cc2ccc(Cl)cc2)C1(O)Cn1cncn1 (centres undefined) [Ipconazole] | 6.21
46 | CC(C)CCCCCCCCCCCCC(=O)O [Isopalmitic acid] | 6.54
47 | CC(C)CCCCCCCCCCCCCCC(=O)O [Isostearic acid] | 6.67
48 | O=C(O)c1cc(=O)c2ccccc2[nH]1 [Kynurenic acid] | 3.58
49 | O=C1O[C@H]([C@@H](O)CO)C(O)=C1O [L-Ascorbic acid] | 3.46
50 | N[C@@H](Cc1ccc(O)c(O)c1)C(=O)O [L-DOPA] | 0.702
51 | O=C(O)CC[C@H](O)C(=O)O [L-α-Hydroxyglutaric acid disodium salt] | 0.746
52 | CCCCCCCCCCCC(=O)OC(CC(=O)[O-])C[N+](C)(C)C [Lauroyl-L-carnitine] | 5.46
53 | O=c1[nH]c2c(c(=O)n1C1CCCCC1)CCC2 [Lenacil] | 5.48
54 | CCC=CCC=CCC=CCCCCCCCC(=O)O [Linolenic acid] | 6.53
55 | O=C(O)CC(O)C(=O)O (centres undefined) [MALATE] | 0.676
56 | O=C(O)C(O)c1ccccc1 (centres undefined) [MANDELATE] | 2.98
57 | Cc1c(=O)c(=O)c2c3c[nH]c4c(C)c(=O)c(=O)c(c5c[nH]c1c52)c43 [MELANIN] | 5.67
58 | COc1ccc2[nH]cc(CCNC(C)=O)c2c1 [MELATONIN] | 4.57
59 | CSCC1OC(n2cnc3c(N)ncnc32)C(O)C1O (centres undefined) [METHYLTHIOADENOSINE] | 3.18
60 | CCCCCCCCCCCCCCCCCCCCCCCCCCCCCC(=O)O [Melissic acid] | 7.12
61 | COC(=O)c1ccc(CNS(C)(=O)=O)cc1S(=O)(=O)NC(=O)Nc1nc(OC)cc(OC)n1 [Mesosulfuron-methyl] | 6.04
62 | CC1(C)CCC(Cc2ccc(Cl)cc2)C1(O)Cn1cncn1 (centres undefined) [Metconazole] | 6.09
63 | CC(C(=O)O)C(=O)O [Methylmalonic acid] | 0.96
64 | CCCCCCCCCCCCCC(=O)OC(CC(=O)[O-])C[N+](C)(C)C [Myristoyl-L-carnitine] | 5.74
